The values below come from patent publication US20030157516A1, “G protein coupled receptor” (priority 2000, published 2003).

The subject of experiment [1] is wild type CHO cells. Description: [3H]adenine competition binding on wild type CHO membranes. Particulars: 15 nM [3H]adenine. As to the method: The membranes were prepared as total particulate fractions. […] The culturing medium was removed and the cells were washed twice with ice cold phosphate buffered saline (PBS without Ca^2+ and Mg^2+), scraped from the plates in 50 mM Tris-HCl buffer, pH 7.4, and collected by centrifugation (10 minutes at 16,000 RPM at 4° C.). The cell pellet was re-suspended in hypotonic 5 mM Tris-HCl buffer, pH 7.4, and homogenized with an Ultra Turrax homogenizer (Janker Kunkel, Germany). The homogenate was centrifuged at 18,000 RPM for 20 minutes at 4° C. The final pellet was re-suspended in 50 mM Tris-HCl buffer, pH 7.4 and stored in aliquots at −70° C. A protein determination was performed using the Bradford protein assay (Biorad, Germany) using bovine serum albumin (BSA) as standard.
(§1) Membranes were thawed on ice and diluted in 50 mM HEPES buffer, pH 7.4 supplemented with 10 mM MgCl2 and 1 mM EGTA. […] Both assays were carried out in a final volume of 500 μl, using 18 μg of membrane protein for the transfected CHO cells and 30 μg of membrane protein for the wild type CHO cells for the saturation binding. For competition binding experiments, 15 and 50 μg of membrane protein was used for the transfected and wild type cells, respectively. The reaction was terminated by rapid filtration through Whatman GF/B filters using a Brandel multi-channel cell harvester (96 wells). The filters were washed three times with 3 ml ice cold 50 mM HEPES buffer, pH 7.4, transferred to liquid scintillation vials and 3 ml of scintillation fluid (Ultima Gold MV, Packard, Netherlands) was added. Samples were counted in a β-scintillation counter after at least 6 hours to permit the glass fiber filters to become uniformly translucent.

Experiment [2] deals with T1, adenine binding rat receptor (Rattus norvegicus, UniProt Q7TN49).
T1 construct: expressed in transfected cells; host or cells: CHO cells, transient, lipofectamine PLUS
T1 sequence (Q7TN49 1-304): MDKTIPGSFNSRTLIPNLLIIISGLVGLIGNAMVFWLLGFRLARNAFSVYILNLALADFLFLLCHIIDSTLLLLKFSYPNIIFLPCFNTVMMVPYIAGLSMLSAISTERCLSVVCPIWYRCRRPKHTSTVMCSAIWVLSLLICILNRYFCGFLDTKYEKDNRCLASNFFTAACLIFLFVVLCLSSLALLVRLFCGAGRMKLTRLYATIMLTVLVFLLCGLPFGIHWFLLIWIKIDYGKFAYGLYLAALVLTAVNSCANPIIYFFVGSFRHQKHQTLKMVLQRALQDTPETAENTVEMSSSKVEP
Description: [3H]adenine competition binding on CHO membranes transiently transfected. Particulars: transfected cells, 15 nM [3H]adenine. As to the method:
The membranes were prepared as total particulate fractions. The cell lines were cultured to […] on 145 mm petri dishes and treated with 5 mM sodium butyrate, 24 hours before collection. The culturing medium was removed and the cells were washed twice with ice cold phosphate buffered saline (PBS without Ca^2+ and Mg^2+), scraped from the plates in 50 mM Tris-HCl buffer, pH 7.4, and collected by centrifugation (10 minutes at 16,000 RPM at 4° C.). The cell pellet was re-suspended in hypotonic 5 mM Tris-HCl buffer, pH 7.4, and homogenized with an Ultra Turrax homogenizer (Janker Kunkel, Germany). The homogenate was centrifuged at 18,000 RPM for 20 minutes at 4° C. The final pellet was re-suspended in 50 mM Tris-HCl buffer, pH 7.4 and stored in aliquots at −70° C. A protein determination was performed using the Bradford protein assay (Biorad, Germany) using bovine serum albumin (BSA) as standard.
as §1, with “A) Methods—[3H]Adenine binding experiments were performed to characterize wild type cell lines before transfection as well as transiently and permanently transfected cell lines. Membranes” for “Membranes”

A further experiment addresses T2, adenine binding GPCR (Rattus norvegicus, UniProt Q7TN49).
T2 construct: The full length reading frame was inserted into the mammalian expression vector pcDNA3; expressed in transfected cells; host or cells: HEK293 cells stably transfected with pLEC/Gqi or pLEC/Gqo
T2 sequence (Q7TN49 1-304): T1 sequence (Q7TN49 1-304)
Description: FLIPR Ca2+ transient assay, antagonism of 30 nM adenine challenge. It counts as cell-based. As to conditions: 15 minutes incubation with compound (30 μM to 30 pM), then challenge with 30 nM adenine. An excerpt:
The full length reading frame was inserted into the mammalian expression vector pcDNA3 (Invitrogen, Carlsbad, Calif., U.S.A.) and the resulting expression construct was transiently transfected with the FuGENE 6 reagent (Roche Molecular Biochemicals, Mannheim, Germany) into HEK293 cells stably transfected (E. Bender, unpublished) with pLEC/Gqi or pLEC/Gqo (Molecular Devices, Sunnyvale, Calif., U.S.A.). The cells were loaded with Fluo-4 (Molecular Probes, Eugene, Oreg., U.S.A.) according to the recommendations of the supplier.
After a 15 minutes incubation at room temperature, the same cells were challenged with 30 nM adenine, to detect antagonistic properties of molecules added in the first round of superfusion.

The next experiment addresses T3, rat adenine binding GPCR (Rattus norvegicus, UniProt Q7TN49).
T3 sequence (Q7TN49 1-304): T1 sequence (Q7TN49 1-304)
Description: FLIPR Ca2+ transient assay, agonism, HEK293/Gq chimera cells transiently transfected with rat adenine binding GPCR/pcDNA3. It counts as cell-based. Further details: The full length reading frame was inserted into the mammalian expression vector pcDNA3; expressed in transfected cells; host or cells: HEK293 cells stably transfected with pLEC/Gqi or pLEC/Gqo. Particulars: for calcium transients elicited: HEK293/Gaqo cells, 3.3 μM; for agonistic effects on Ca2+ transients: concentrations ranging from 30 μM to 30 pM. From the text:
This assay is based around an instrument called a FLuorescence Imaging Plate Reader ((FLIPR®), Molecular Devices Corporation). In its most common configuration, it excites and measures fluorescence emitted by fluorescein-based dyes. It uses an argon-ion laser to produce high power excitation at 488 nm of a fluorophore, a system of optics to rapidly scan the over the bottom of a 96-/384-well plate and a sensitive, cooled CCD camera to capture the emitted fluorescence. It also contains a 96-/384-well pipetting head allowing the instrument to deliver solutions of test agents into the wells of a 96-/384-well plate. The FLIPR assay is designed to measure fluorescence signals from populations of cells before, during and after addition of compounds, in real time, from all 96-/384-wells simultaneously. […] As described below, calcium transients in cells transfected with adenine binding GPCR were measured using the FLIPR assay in order to measure activation of the receptors by various substrates in order to determine the natural ligand of the receptor.
The full length reading frame was inserted into the mammalian expression vector pcDNA3 (Invitrogen, Carlsbad, Calif., U.S.A.) and the resulting expression construct was transiently transfected with the FuGENE 6 reagent (Roche Molecular Biochemicals, Mannheim, Germany) into HEK293 cells stably transfected (E. Bender, unpublished) with pLEC/Gqi or pLEC/Gqo (Molecular Devices, Sunnyvale, Calif., U.S.A.). The cells were loaded with Fluo-4 (Molecular Probes, Eugene, Oreg., U.S.A.) according to the recommendations of the supplier. […]
Using the FLIPR assay as above, calcium transients were measured in both sets of cells with the transients attributable to the novel GPCR measured as the difference between the two transients. Results are illustrated in FIG. 4. […]

The test system of experiment [3] is wild type CHO cells. As to the kind of experiment: cAMP measurements on wild type CHO cells. The class given is cell-based. Particulars: wild type. On the procedure:
For permanently transfected CHO cells, cAMP measurements were performed using the indirect RIA kit from NEN (Belgium).
a) Methods: Two days before the experiment the cells were seeded out in a 96 well plate at a density required for approximately 90% confluence at the day of the experiment. After removal of the growth medium, the cells were washed twice with a controlled salt solution (CSS) containing 25 mM Tris-HCl, pH 7.4, 120 mM NaCl, 5.4 mM KCl, 0.8 mM MgCl2, 1.8 mM CaCl2, 15 mM glucose and 15 mg/l phenol red, with an addition of a phosphodiesterase inhibitor IBMX (3-isobutyl-1-methylxanthine) in a concentration of 1 mM and […]. Basal cAMP levels were determined in CSS containing these additives and maximally stimulated cAMP levels were determined in the presence of 50 μM forskolin. For testing agonistic activity, the compounds were incubated with the cells for 20 minutes at 37° C. The reaction was stopped by addition of ice cold HClO4 (1N) and stored at −20° C. After thawing the mixtures were neutralized with an equivalent amount of phosphate buffered KOH, left at 4° C. during 30 minutes to allow the salts to precipitate and centrifuged at 2,000 RPM for 5 minutes at 4° C.
For the quantitative determination of the cAMP levels, a 96-well Flashplate radioimmunoassay kit from NEN was used, according to the protocol of the supplier. The sigmoid concentration response curves (duplicate points) were analyzed using the GraphPad Prism program.

SMILES strings stand for the structures. Several values for one entry are separate records, joined by “and”; a condition that tells them apart may be missing. Identical values can stand only once.

For the molecule `O=c1[nH]cnc2nc[nH]c12` [Hypoxanthine, hypoxanthine], the pIC50 with wild type CHO cells [1] (mean of n experiments) and in the experiment on wild type CHO cells [1] (single experiments) was below 4 in each case. Further, the IC50 in experiment [2] (mean of n experiments) and in experiment [2] (single experiments) was above 100 µM each time. The antagonistic effect entry on adenine binding GPCR is “did not elicit antagonistic effects”. Moreover, at rat adenine binding GPCR, the calcium transients elicited result was “could not be elicited”. Besides, on rat adenine binding GPCR, the “agonistic effects on Ca2+ transients” value is recorded as “No further agonistic effects”.

For `Nc1ncnc2c1ncn2[C@@H]1O[C@H](CO)[C@@H](O)[C@H]1O` [Adenosine, adenosine], the negative-log IC50 (pIC50) in the experiment on wild type CHO cells [1] (mean of n experiments) and with wild type CHO cells [1] (single experiments) was below 4 each time. For the same molecule, the IC50 in experiment [2] (mean of n experiments) was around 100 µM; in experiment [2] (single experiments) it was > 100 µM and 72.4 µM. The Ki in experiment [2] (single experiments) turned out to be 44.6 µM. Besides, the antagonistic effect result on adenine binding GPCR is “did not elicit antagonistic effects”. Besides, at rat adenine binding GPCR (at high concentrations (>3.3 μM)), the “agonism of nucleoside and nucleotide derivatives of adenine” value is recorded as “weak partial agonism”.

On to `O=c1ccn([C@@H]2O[C@H](CO)[C@@H](O)[C@H]2O)c(=O)[nH]1` [Uridine, uridine], for which the pIC50 in the experiment with wild type CHO cells [1] (mean of n experiments) and in the experiment with wild type CHO cells [1] (single experiments) was below 4 each time. For the same molecule, the 50% inhibitory concentration (IC50) in experiment [2] (mean of n experiments) and in experiment [2] (single experiments) was above 100 µM each time. Further, the antagonistic effect result at adenine binding GPCR was “did not elicit antagonistic effects”. In addition, the calcium transients elicited result at rat adenine binding GPCR is on record as “could not be elicited”. Moreover, the “agonistic effects on Ca2+ transients” value on rat adenine binding GPCR is reported as “No further agonistic effects”.

Turning to `C=C[C@@]1(C)CC(=O)[C@]2(O)[C@@]3(C)[C@@H](O)CCC(C)(C)[C@@H]3[C@H](O)[C@H](OC(C)=O)[C@@]2(C)O1` [forskolin], the “cAMP level with Forskolin 50 μM” value with wild type CHO cells [3] (0.5% hiFCS, induction) is listed as 25 pmol/well; with wild type CHO cells [3] (0.5% hiFCS, no induction), 26 pmol/well; in the experiment with wild type CHO cells [3] (10% hiFCS, induction) it was 63 pmol/well; in the experiment with wild type CHO cells [3] (10% hiFCS, no induction) it was 107 pmol/well.

`Nc1ncnc2c1ncn2[C@@H]1O[C@H](COP(=O)(O)OP(=O)(O)O)[C@@H](O)[C@H]1O` [ADP]: the negative logarithm of the IC50 (pIC50) (in the experiment with wild type CHO cells [1] (mean of n experiments); in the experiment with wild type CHO cells [1] (single experiments); in experiment [2] (mean of n experiments); in experiment [2] (single experiments)) was below 4 each time. The antagonistic effect entry at adenine binding GPCR was “did not elicit antagonistic effects”. Also, the “agonistic effects on Ca2+ transients” value on rat adenine binding GPCR is “No further agonistic effects”.

With `Nc1nc2nc[nH]c2c(=O)[nH]1` [Guanine, guanine], the pIC50 in the experiment on wild type CHO cells [1] (mean of n experiments) and in the experiment on wild type CHO cells [1] (single experiments) was below 4 each time. Moreover, the IC50 in experiment [2] (mean of n experiments) and in experiment [2] (single experiments) was above 100 µM throughout. On adenine binding GPCR, the antagonistic effect entry is listed as “weak antagonistic effect”. On rat adenine binding GPCR, the calcium transients elicited result is recorded as “could not be elicited”. Also, at rat adenine binding GPCR, the “agonistic effects on Ca2+ transients” value is recorded as “No further agonistic effects”.

What is called pIC50 is the IC50 on a negative log10 scale, so that one unit is a factor of ten. The term IC50 denotes the concentration at which inhibition is half-maximal. Lower therefore signals inhibition by little substance. In general, Ki refers to a measure of affinity in units of concentration, obtained from inhibition or displacement. A low value points to tighter binding.
